According to patent publication US10781262B2, “Combination therapy of T cell activating bispecific antigen binding molecules and PD-1 axis binding antagonists” (Hoffmann-La Roche Inc., priority 2014, dated 2020):

How the values were obtained:
[1] = test system: FolR1 expressing tumor cells and FolR1 negative cell line MKN-45; experiment: Flow cytometry binding to tumor cells with different FolR1 expression levels; parameters: species or system human
Excerpt: FIGS. 6A-E depict graphs summarizing binding of FolR1 IgGs to cells with different FolR1 expression levels. […] DP47 IgG was included as isotype control and MKN-45 were included as FolR1 negative cell line.
The used panel of tumor cells contains FolR1 high, intermediate and low expressing tumor cells and a FolR1 negative cell line.
The amount of bound construct is proportional to the FolR1 expression level and there is still good binding of the constructs to the FolR1 low cell line HT-29 detectable. […] DP47 TCB is an untargeted TCB and was prepared as described in WO2014/131712.

[2] = test system: CD8^+ T-cells with FolR1^+ ovarian cancer cell line Skov3; experiment: PBMCs from healthy donors co-cultured with Skov3 cells, FolR1-TCB; type: cell-based, human; details: 0.6 pM to 2 nM for 24 h
Method: FIGS. 40A-C show activation of CD8^+ T-cells upon exposure to increasing concentrations of FolR1-TCB. PBMCs were co-cultured with Skov3 cells for 24 h in the presence or absence of FolR1-TCB or the unspecific control DP-47-TCB. […] Shaded histogram: isotype control; open histogram: anti-FolR1-antibody. FIG. 40B: The expression of the activation markers CD25, CD137, and ICOS on CD8^+ T-cells was determined by flow cytometry.
To assess the effect of FolR1-TCB on T-cell activation peripheral blood mononuclear cells (PBMCs) from healthy donors were co-cultured with the FolR1^+ ovarian cancer cell line Skov3 (FIG. 40A). […] In addition, T-cells secreted IL-2, IFN-γ, and TNF.

[3] = test system: CFSE-labelled Skov3 cells; experiment: Killing assay with tumor samples; type: cell-based, human
Method: To determine the FolR1-TCB induced tumor cell killing, 3×10^4 CFSE-labelled Skov3 cells were cocultured with tumor samples in the presence or absence of FolR1-TCB at a concentration of 2 nM for 24h in 96-well flat bottom cell culture plates. The E:T ratio (E: effector CD45^+CD3^+ cells; T: target FolR1^+ cells from tumor and added Skov3 cells) was adjusted to 1:1 in each well and the cell number of the added tumor samples was calculated for each sample according to prior characterization by flow cytometry. Cell death of Skov3 cells was determined by flow cytometry by measuring activated caspase 3 and the live/dead marker Live/Dead-near-IR. The assay was performed in triplicates. The FolR1-TCB mediated killing was calculated according to the following equation: % of specific killing=100−[(% of Skov3 live cells in FolR1-TCB treated sample/% of Skov3 live cells in untreated sample)×100].
To compare the FolR1-TCB-induced killing capacity of T-cells between tumor samples, and to exclude additional factors suppressing T-cell functionality, such as expression of PD-L1 on the tumor cells, we exogenously added CFSE-labeled FolR1^+ Skov3 cells to the tumor digests and adjusted the E:T ratio to 1:1, essentially as described above. We then measured the FolR1-TCB-induced killing of CFSE-labeled Skov3 cells, which allowed us to also include FolR1^− tumor samples into the analysis. […]

[4] = test system: CD4 and CD8 T cells with SKOV3 cells; experiment: T cell activation upon killing (CD25, CD69, flow cytometry); type: cell-based, human; details: SKOV3 and HT-29 cells
Method: (§1) FIGS. 7A-L depict graphs summarizing T cell mediated killing of HT-29 and SKOV3 cells. FolR1 TCBs were used to test T cell mediated killing of HT-29 and SKOV3 tumor cells and upregulation of activation marker on T cells upon killing. […] DP47 TCB was included as negative control. After 48 h incubation upregulation of the activation marker CD25 and CD69 on CD8 T cells and CD4 T cells upon killing of SKOV3 (FIGS. 7E-H) or HT-29 (FIG. 7I-L) tumor cells was assessed by flow cytometry.
(§2) Overall killing of SKOV3 cells was higher compared to HT-29 which reflects the higher expression levels of FolR1 on SKOV3 cells (FIGS. 7A-D). In line with this, a strong upregulation of the activation marker CD25 and CD69 on CD4^+ T cells and CD8^+ T cells was detected. Activation of T cells was very similar in the presence of SKOV3 cells and HT-29 cells.

SKOV3 cells = experiment: T cell mediated killing (LDH release); type: cell-based, human; details: SKOV3 and HT-29 cells
Method: as §1, §2

[5] = test system: T cells in FolR1 positive tumor digests or malignant effusions; experiment: Ex vivo treatment of tumor samples with FolR1-TCB (T cell activation); type: cell-based, human
Method: FolR1 positive tumor digests or malignant effusions were thawed, washed and plated in 96-well flat bottom cell culture plates (BD Falcon) with a density of 3×10^5 cells/200 μl/well in complete medium (DMEM+Sodium Pyruvate (1 mM)+MEM non essential AA (1×)+L-Glutamin (2 mM)+Penicillin/Streptomycin ([…])+2-Mercaptoethanol ([…])+Ciproxin (1 mg/ml)+10% human Serum). The samples were cultured in the presence or absence of FolR1-TCB or DP47 TCB at a concentration of 2 nM for 24h. Activation of CD8+ and CD4^+ T cells (CD45^+CD3+) upon FolR1-TCB treatment was determined by multicolor flow cytometry by measuring the expression of the cell surface markers CD25, CD69, CD137, ICOS, PD-1 and Tim-3. Furthermore the expression of granzyme B and IFN-γ was determined by intracellular staining.
To determine FolR1-TCB induced T cell activation, tumor samples were cultured in the presence or absence of FolR1-TCB or the control TCB DP-47. Then, T cells were characterized by multicolor flow cytometry for expression of activation markers and T cell effector functions, as described above. […] FolR1-TCB-induced perforin secretion was highly variable in TILs, and severely impaired in a subset of patients (FIG. 12N).

[6] = test system: T cells in EpCAM positive tumor digests or malignant effusions; experiment: Ex vivo treatment of tumor samples with catumaxomab; type: cell-based, human; details: 10 ng/ml, 24h; 4 NSCLC tumor digests
Method: The trifunctional TCB catumaxomab (Removab®) was obtained from Fresenius. The experimental conditions were similar as indicated above for FolR1-TCB. Briefly, EpCAM positive tumor digests or malignant effusions were cultured in the presence or absence of catumaxomab at a concentration of 10 ng/ml for 24h. Analysis of CD8÷ and CD4^+ positive T cells (CD45^+CD3+) was performed as described above.
To determine to which extent catumaxomab induces T cell activation and to confirm the findings described above using a second, independent T cell bispecific molecule, 4 tumor digests from patients with NSCLC were exposed to catumaxomab, a trifunctional bispecific antibody recognizing CD3 on T cells and EpCAM on tumor cells. Then, T cells were characterized by flow cytometry for expression of activation markers and T cell effector functions (FIG. 17A-D). […] Accordingly, the baseline expression of inhibitory receptors differed between the patients (FIG. 17E-H).

T cells in tumor digests = experiment: Polyclonal stimulation with anti-CD3/CD28 antibodies and PD-1 blockade; type: cell-based, human; details: 10 μg/ml, 24 hrs
[7] = test system: T cells in FolR1^+ tumor digests or malignant effusions; experiment: FolR1-TCB with PD-1 blockade in tumor digests or malignant effusions; type: cell-based, human; details: combination with FolR1-TCB
Method: FIG. 38A-D: FolR1^+ tumor digests or malignant effusions were cultured for 24 h with FolR1-TCB in the presence or absence of a PD-1 blocking antibody. […] The increase in cytokine secretion upon combined FolR1-TCB and anti-PD-1 treatment compared with FolR1-TCB alone was determined in PD-1^hi scarce and abundant tumors. FIG. 38E: Tumor digests or malignant effusions were co-cultured with exogenously added fluorescently labeled Skov3 cells at an E:T ratio of 1:1 for 24 h in the presence or absence of a PD-1 blocking antibody and FolR1-TCB. The increase in specific killing by the anti-PD-1 antibody was compared in PD-1^hi scarce and abundant tumors. p-values were calculated using the unpaired Mann-Whitney test.
As the level of PD-1 expression on TILs correlates with the efficacy of FolR1-TCB, we analyzed whether blockade of the PD-1/PD-L1 axis in combination with FolR1-TCB treatment might be able to restore T-cell function.

## DP47 TCB: untargeted TCB, negative control, prepared as described in WO2014/131712
[1]
  binding to panel of tumor cell lines: no binding
[2]
  activation of CD8^+ T-cells (in words): did not induce any T-cell activation
[3]
  tumor cell killing (in words): did not induce any tumor cell killing
[4]
  upregulation of CD25 and CD69 on T cells (in words): no significant upregulation of CD25 and CD69 on T cells
SKOV3 cells
  T cell mediated killing (in words): does not induce any killing
[5]
  T cell activation in tumor samples (in words): did not induce any T cell activation

## catumaxomab
[6]
  catumaxomab induced T cell activation (in words): striking heterogeneity in catumaxomab induced T cell activation

## nivolumab: PD-1 blocking antibody
T cells in tumor digests
  restoration of T cell effector function by PD-1 blockade (in words): could restore T cell effector function such as production and secretion of IL-2, IFN-γ and TNF-α only in some patients
[7]; 24 h
  secretion of IFN-γ, TNF, IL-2 and perforin upon combined treatment with FolR1-TCB (in words): could be increased only in some of the PD-1^hi scarce tumors
[7]; Skov3 cells E:T 1:1
  cytotoxic tumor cell killing upon additional PD-1 blockade (in words): could neither be improved
